From patent publication US20240325544A1, “CATIONIC LIPID FOR COVALENT MODIFICATION OF PEPTIDES” (PharmalN Corporation, priority 2023, published 2024)
Marks after values point to notes of the source that are not given here. Bridge positions count the residues as written; N and C are the ends. Square brackets hold non-standard residues; d marks the D form. Peptide text beside a SMILES is read from it. * marks the point of attachment. Palmitoyl = CCCCCCCCCCCCCCCC(=O)*; Dab = NCC[C@H](N)C(=O)O; Dap = NC[C@H](N)C(=O)O; AEEA = NCCOCCOCC(=O)O

How the values were obtained:
cGMP [1] = test: Plasma cGMP after SC bolus of natriuretic peptides in CD-1 mice (pharmacodynamics, Table 3); format: in vivo; details: SC bolus 1.0 mg/kg (≤0.45 μmol/kg), baseline 10 +/−8 pmol/ml, n = 3-5
Procedure, shortened: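 Peptides given SC in sterile water; retro-orbital blood at 2 and 6 h post-dose (two bleeds per mouse), K2EDTA plasma. Plasma cGMP by commercial immunoassay kit; ANP, BNP or CNP plasma levels by peptide-specific ELISA.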

cGMP [2] = test: Plasma cGMP profile after single SC injection in CD-1 mice (FIG. 1B); format: in vivo; details: 1.0 mg/kg SC, 0-24 hours
Procedure: The animals were kept in PharmaIN animal facility with controlled temperature (68-74° F.) and humidity (30-60%), and a 12-hour light/dark cycle. […] Lead buffer was used to formulate or dissolve all test articles on the day of administration. Blood sampling: Blood samples were collected via retro-orbital bleed at several timepoints (0, 0.5, 1, 2, 4, 6, 8, and 24 hours) and processed in K2EDTA tubes (2000× g; 15 min, 4° C. within 30 minutes after collection) to obtain plasma. Plasma samples were aliquoted and stored at −80° C. until analysis. Biochemical analysis: For pharmacokinetic study, plasma aliquots were thawed at 4° C. then analyzed using a commercially available CNP ELISA kit from Phoenix Pharmaceuticals (cat #EKE-012-03), which detects the cyclic structure of CNP and all CNP derivatives with the same level of reactivity to the ELISA kit. […] For pharmacodynamic or bioactivity study of cGMP, plasma aliquots were thawed at 4° C. then analyzed using a commercially available cGMP kit from Abcam (ab133052, Waltham, MA).

C57BL/6J mice = test: Survival in LPS induced ALI model (FIG. 2B); format: in vivo; details: LPS 20 mg/kg IT; 0.3 mg/kg (0.1 μmol/kg) IT every 24 hours, 3 doses, survival to 72 hours
Procedure: FIGS. 2A-2B: Single and repeat administration of cationic alkyl modified C-type Natriuretic Peptides increases probability of survival in LPS induced Sepsis and ALI animal models. FIG. 2A) Sepsis induction: Male C57BL/6J mice (n=10 per group; 3 groups) were injected IP with LPS (15 mg/kg) and treated with various test articles, including cationic alkyl modified CNPs (SEQ ID NO: 31 and 29; 0.3 mg/kg (0.1 μmol/kg) SC). The control group received LPS treatment without any test article. The test articles were administered immediately after LPS administration (marked with vertical dotted lines). Survival was monitored every 2 hours from 8-56 hours, after which the surviving mice were euthanized under isoflurane anesthesia. […] Survival was monitored every 8 hours for 72 hours, after which the surviving mice were euthanized under isoflurane anesthesia. […]
Animal care and treatment: Male C57BL/6J mice (6 weeks-old) were purchased from Kyudo (Saga, Japan) and maintained under a 12-hour light/12-hour dark cycle with free access to water and standard mouse diet (MF diet, Oriental Yeast Co., Ltd. Tokyo, Japan). […] Survival was monitored every 2 hours from 8-56 hours, after which the mice were euthanized under isoflurane anesthesia. […] Survival was monitored every 8 hours for 72 hours, after which the mice were euthanized under isoflurane anesthesia. […]

Sprague Dawley rats = test: Dose-range finding of cationic alkyl modified CNP, subcutaneous bolus in rats (Table 2)
Procedure: Animal care and treatment: Male Sprague Dawley rats aged 8 to 10 weeks (Charles River, Hollister, CA) were housed in groups of two (n=3/group) in disposable polypropylene cages with rodent cob bedding at the PharmaIN animal facility. Animals had ad libitum access to food (LabDiet Pico Rodent #5053; Animal Specialties, Woodburn, OR) and water. Temperature (68-74° F.) and humidity (30-60%) were maintained within a controlled range, and a 12-hour light/dark cycle was used. […] Animals were monitored closely during the first 4 hours following injection, then hourly throughout the rest of the day for any signs of swelling or discoloration (dilatory side effect), lethargy (side effect), ataxia (ataxia is used as a marker of toxicity). Rats were allowed a 1-week wash-out period between bolus doses. Following final observations, animals were humanely euthanized through CO2 asphyxiation.

CCCCCCCCCCCCCCCC(=O)NCCOCCOCC(=O)NCCOCCOCC(=O)NCCOCCOCC(=O)N[C@@H](CN)C(=O)N[C@@H](CN)C(=O)NCC(=O)N[C@@H](CC(C)C)C(=O)N[C@@H](CO)C(=O)N[C@@H](CCCCN)C(=O)NCC(=O)N[C@H]1CSSC[C@@H](C(=O)O)NC(=O)CNC(=O)[C@H](CC(C)C)NC(=O)CNC(=O)[C@H](CO)NC(=O)[C@H](CCC(N)=O)NC(=O)[C@H](CO)NC(=O)CNC(=O)[C@H]([C@@H](C)CC)NC(=O)[C@H](CCCNC(=N)N)NC(=O)[C@H](CC(=O)O)NC(=O)[C@H](CC(C)C)NC(=O)[C@H](CCCCN)NC(=O)[C@H](CC(C)C)NC(=O)CNC(=O)[C@H](Cc2ccccc2)NC1=O [SEQ ID NO: 31] ({Palmitoyl-AEEA-AEEA-AEEA}-[Dap][Dap]GLSKGCFGLKLDRIGSQSGLGC-OH; disulfide 8-24; C-terminus assumed)
Plasma concentration of cGMP, 2 hr (cGMP [1]): 98.34**** pmol/mL | Plasma concentration of cGMP, 6 hr (cGMP [1]): 53.62*** pmol/mL | Plasma cGMP levels over time compared to native CNP (cGMP [2]): sustained elevation of cGMP levels | Survival (C57BL/6J mice): effective in improving survival | Ataxia** in n = 3 (Sprague Dawley rats; up to 10 mg/kg): >10 mg/kg | Lethargy* in n = 3 (Sprague Dawley rats; up to 10 mg/kg): >10 mg/kg | Ataxia** in n = 3 (Sprague Dawley rats; value in parentheses): (3.3) μmol/kg | Lethargy* in n = 3 (Sprague Dawley rats; value in parentheses): (3.3) μmol/kg

CCCCCCCCCCCCCCCC(=O)NCCOCCOCC(=O)NCCOCCOCC(=O)NCCOCCOCC(=O)N[C@@H](CCN)C(=O)N[C@@H](CCN)C(=O)NCC(=O)N[C@@H](CC(C)C)C(=O)N[C@@H](CO)C(=O)N[C@@H](CCCCN)C(=O)NCC(=O)N[C@H]1CSSC[C@@H](C(=O)O)NC(=O)CNC(=O)[C@H](CC(C)C)NC(=O)CNC(=O)[C@H](CO)NC(=O)[C@H](CCC(N)=O)NC(=O)[C@H](CO)NC(=O)CNC(=O)[C@H]([C@@H](C)CC)NC(=O)[C@H](CCCNC(=N)N)NC(=O)[C@H](CC(=O)O)NC(=O)[C@H](CC(C)C)NC(=O)[C@H](CCCCN)NC(=O)[C@H](CC(C)C)NC(=O)CNC(=O)[C@H](Cc2ccccc2)NC1=O [SEQ ID NO: 29] ({Palmitoyl-AEEA-AEEA-AEEA}-[Dab][Dab]GLSKGCFGLKLDRIGSQSGLGC-OH; disulfide 8-24; C-terminus assumed)
Plasma concentration of cGMP, 2 hr (cGMP [1]): 157.31* pmol/mL | Plasma concentration of cGMP, 6 hr (cGMP [1]): 65.65* pmol/mL | Plasma cGMP levels over time compared to native CNP (cGMP [2]): sustained elevation of cGMP levels | Survival (C57BL/6J mice): effective in improving survival | Ataxia** in n = 3 (Sprague Dawley rats; up to 10 mg/kg): >10 mg/kg | Lethargy* in n = 3 (Sprague Dawley rats; up to 10 mg/kg): ≥9.5 mg/kg | Ataxia** in n = 3 (Sprague Dawley rats; value in parentheses): (3.3) μmol/kg | Lethargy* in n = 3 (Sprague Dawley rats; value in parentheses): (3.1) μmol/kg
